# Laboratory results: ChEMBL document CHEMBL1201861, “Genomics of Drug Sensitity in Cancer screening data, Wellcome Trust Sanger Institute”
# Columns and labels:
# [1] = system: 8305C; experiment: cells; type: functional, cell-based; settings: Homo sapiens
# Description: SANGER: Inhibition of human 8305C cell growth in a cell viability assay.
# [2] = system: NCCIT; experiment: SANGER: Inhibition of human NCCIT cell growth in a cell viability assay.; type: functional, cell-based; settings: Homo sapiens, NCCIT
# [3] = system: HCT-15; experiment: cells; type: functional, cell-based; settings: Homo sapiens;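 also: cell viability readout, IC50 reflecting suppression of HCT-15 cell growth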
# Description: SANGER: Inhibition of human HCT-15 cell growth in a cell viability assay.
# [4] = system: SCC-4; experiment: cells; type: functional, cell-based; settings: Homo sapiens;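 also: growth inhibition of human SCC-4 cells, read out as cell viability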
# Description: SANGER: Inhibition of human SCC-4 cell growth in a cell viability assay.
# [5] = system: GP5d; experiment: cells; type: functional, cell-based; settings: Homo sapiens;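 also: growth inhibition of human GP5d cells, read out with a cell viability assay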
# Description: SANGER: Inhibition of human GP5d cell growth in a cell viability assay.
# [6] = system: HEC-1; experiment: cells; type: functional, cell-based; settings: Homo sapiens;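 also: growth inhibition of the cell line, read out with a cell viability assay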
# Description: SANGER: Inhibition of human HEC-1 cell growth in a cell viability assay.
# [7] = system: EB2; experiment: cells; type: functional, cell-based, Homo sapiens; settings: Homo sapiens, EB2;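 also: growth inhibition of EB2 cells, read out with a cell viability assay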
# Description: SANGER: Inhibition of human EB2 cell growth in a cell viability assay.
# [8] = system: EB-3; experiment: cells; type: functional, cell-based, Homo sapiens; settings: Homo sapiens, EB-3;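 also: human EB-3 cells, growth inhibition read out via a cell viability assay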
# Description: SANGER: Inhibition of human EB-3 cell growth in a cell viability assay.
# [9] = system: NCI-H1522; experiment: cells; type: functional, cell-based, Homo sapiens; settings: Homo sapiens, NCI-H1522;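 also: growth inhibition of NCI-H1522 cells, read out with a cell viability assay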
# Description: SANGER: Inhibition of human NCI-H1522 cell growth in a cell viability assay.
# [10] = system: BL-41; experiment: cells; type: functional, cell-based; settings: Homo sapiens;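 also: growth inhibition of human BL-41 cells, read out with a cell viability assay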
# Description: SANGER: Inhibition of human BL-41 cell growth in a cell viability assay.
# [11] = system: NCI-H64; experiment: cells; type: functional, cell-based, Homo sapiens; settings: Homo sapiens, NCI-H64;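 also: growth inhibition of NCI-H64 cells, read out with a cell viability assay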
# Description: SANGER: Inhibition of human NCI-H64 cell growth in a cell viability assay.
# [12] = system: SNU-16; experiment: cells; type: functional, cell-based, Homo sapiens; settings: Homo sapiens, SNU-16;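 also: growth inhibition of human SNU-16 cells, determined with a cell viability readout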
# Description: SANGER: Inhibition of human NCI-SNU-16 cell growth in a cell viability assay.
# [13] = system: L-540; experiment: cells; type: functional, cell-based, Homo sapiens; settings: Homo sapiens, L-540;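 also: growth inhibition of the human L-540 cell line, read out with a viability assay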
# Description: SANGER: Inhibition of human L-540 cell growth in a cell viability assay.
# [14] = system: TE-441-T; experiment: cells; type: functional, cell-based, Homo sapiens; settings: Homo sapiens, TE-441-T
# Description: SANGER: Inhibition of human TE-441-T cell growth in a cell viability assay.
# [15] = system: LP-1; experiment: cells; type: functional, cell-based, Homo sapiens; settings: Homo sapiens, LP-1;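 also: growth inhibition of human LP-1 cells, with the read-out taken from a cell viability assay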
# Description: SANGER: Inhibition of human LP-1 cell growth in a cell viability assay.
# [16] = system: EW-24; experiment: cells; type: functional, cell-based, Homo sapiens; settings: Homo sapiens, EW-24;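 also: human EW-24 cancer cell line, growth inhibition read out via a cell viability assay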
# Description: SANGER: Inhibition of human EW-24 cell growth in a cell viability assay.
# [17] = system: NCI-H322M; experiment: cells; type: functional, cell-based, Homo sapiens; settings: Homo sapiens, NCI-H322M;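 also: cell viability assay measuring inhibition of growth of human NCI-H322M cells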
# Description: SANGER: Inhibition of human NCI-H322M cell growth in a cell viability assay.
# [18] = system: NCI-H2081; experiment: cells; type: functional, cell-based, Homo sapiens; settings: Homo sapiens, NCI-H2081;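 also: growth inhibition of human NCI-H2081 cells, read out with a cell viability assay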
# Description: SANGER: Inhibition of human NCI-H2081 cell growth in a cell viability assay.
# [19] = system: HCC1599; experiment: cells; type: functional, cell-based, Homo sapiens; settings: Homo sapiens, HCC1599;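 also: growth inhibition of HCC1599 cells, read out in a cell viability assay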
# Description: SANGER: Inhibition of human HCC1599 cell growth in a cell viability assay.
# [20] = system: EC-GI-10; experiment: cells; type: functional, cell-based, Homo sapiens; settings: Homo sapiens, EC-GI-10
# Description: SANGER: Inhibition of human EC-GI-10 cell growth in a cell viability assay.
# [21] = system: KARPAS-422; experiment: cells; type: functional, cell-based, Homo sapiens; settings: Homo sapiens, KARPAS-422
# Description: SANGER: Inhibition of human KARPAS-422 cell growth in a cell viability assay.
# [22] = system: MRK-nu-1; experiment: cells; type: functional, cell-based, Homo sapiens; settings: Homo sapiens, MRK-nu-1;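 also: cell viability assay measuring growth suppression of human MRK-nu-1 cells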
# Description: SANGER: Inhibition of human MRK-nu-1 cell growth in a cell viability assay.
# [23] = system: NB17; experiment: cells; type: functional, cell-based, Homo sapiens; settings: Homo sapiens, NB17;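 also: growth inhibition of NB17 cells, read out with a cell viability assay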
# Description: SANGER: Inhibition of human NB17 cell growth in a cell viability assay.
# [24] = system: IST-SL2; experiment: cells; type: functional, cell-based, Homo sapiens; settings: Homo sapiens, IST-SL2;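 also: growth inhibition of human IST-SL2 cells, read out by a cell viability assay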
# Description: SANGER: Inhibition of human IST-SL2 cell growth in a cell viability assay.
# [25] = system: A-375; experiment: cells; type: functional, cell-based; settings: Homo sapiens;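 also: growth inhibition of A375 cells, read out with a cell viability assay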
# Description: SANGER: Inhibition of human A375 cell growth in a cell viability assay.
# [26] = system: SW948; experiment: cells; type: functional, cell-based; settings: Homo sapiens;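 also: growth inhibition of SW948 cells, read out with a cell viability assay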
# Description: SANGER: Inhibition of human SW948 cell growth in a cell viability assay.
# [27] = system: AU565; experiment: cells; type: functional, cell-based; settings: Homo sapiens;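 also: cell viability assay measuring growth inhibition of human AU565 cells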
# Description: SANGER: Inhibition of human AU565 cell growth in a cell viability assay.
# [28] = system: BT-20; experiment: cells; type: functional, cell-based; settings: Homo sapiens;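 also: cell viability assay measuring suppression of growth in human BT-20 cells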
# Description: SANGER: Inhibition of human BT-20 cell growth in a cell viability assay.
# [29] = system: NCI-H727; experiment: cells; type: functional, cell-based; settings: Homo sapiens;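 also: growth inhibition of human NCI-H727 cells, read out with a cell viability assay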
# Description: SANGER: Inhibition of human NCI-H727 cell growth in a cell viability assay.
# [30] = system: A-431; experiment: cells; type: functional, cell-based; settings: Homo sapiens;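 also: growth inhibition of A-431 cells, determined with a cell viability read-out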
# Description: SANGER: Inhibition of human A431 cell growth in a cell viability assay.
# [31] = system: RERF-LC-MS; experiment: cells; type: functional, cell-based; settings: Homo sapiens;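 also: growth inhibition of human RERF-LC-MS cells, read out by a cell viability assay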
# Description: SANGER: Inhibition of human RERF-LC-MS cell growth in a cell viability assay.
# [32] = system: RVH-421; experiment: cells; type: functional, cell-based; settings: Homo sapiens
# Description: SANGER: Inhibition of human RVH-421 cell growth in a cell viability assay.
# [33] = system: SW13; experiment: cells; type: functional, cell-based; settings: Homo sapiens;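 also: IC50 is inhibition of SW13 cell growth, read out with a cell viability assay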
# Description: SANGER: Inhibition of human SW13 cell growth in a cell viability assay.
# [34] = system: KYSE-140; experiment: cells; type: functional, cell-based; settings: Homo sapiens;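 also: cell viability assay measuring growth inhibition in human KYSE-140 cells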
# Description: SANGER: Inhibition of human KYSE-140 cell growth in a cell viability assay.
# [35] = system: HOS; experiment: cells; type: functional, cell-based; settings: Homo sapiens;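 also: growth inhibition of human HOS cells, read out with a cell viability assay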
# Description: SANGER: Inhibition of human HOS cell growth in a cell viability assay.
# [36] = system: CAL-27; experiment: cells; type: functional, cell-based; settings: Homo sapiens;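 also: Viability-based readout, IC50 reflecting inhibition of CAL-27 cell growth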
# Description: SANGER: Inhibition of human CAL-27 cell growth in a cell viability assay.
# [37] = system: CAL-39; experiment: cells; type: functional, cell-based; settings: Homo sapiens;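 also: cell viability assay measuring growth inhibition of CAL-39 cells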
# Description: SANGER: Inhibition of human CAL-39 cell growth in a cell viability assay.
# [38] = system: SNU-423; experiment: cells; type: functional, cell-based; settings: Homo sapiens
# Description: SANGER: Inhibition of human SNU-423 cell growth in a cell viability assay.
# [39] = system: CaR-1; experiment: cells; type: functional, cell-based; settings: Homo sapiens;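 also: growth inhibition of human CaR-1 cancer cells, read out with a cell viability assay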
# Description: SANGER: Inhibition of human CaR-1 cell growth in a cell viability assay.
# [40] = system: NCI-H2087; experiment: cells; type: functional, cell-based; settings: Homo sapiens;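 also: growth inhibition determined with a cell viability readout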
# Description: SANGER: Inhibition of human NCI-H2087 cell growth in a cell viability assay.
# [41] = system: KYSE-70 cell line; experiment: cells; type: functional, cell-based; settings: Homo sapiens;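 also: cell viability assay read-out, with IC50 expressing suppression of KYSE-70 cell growth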
# Description: SANGER: Inhibition of human KYSE-70 cell growth in a cell viability assay.
# [42] = system: LU-99A; experiment: cells; type: functional, cell-based; settings: Homo sapiens;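 also: growth inhibition of LU-99A cells, read out with a cell viability assay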
# Description: SANGER: Inhibition of human LU-99A cell growth in a cell viability assay.
# [43] = system: SK-MEL-30; experiment: cells; type: functional, cell-based; settings: Homo sapiens;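 also: growth inhibition of SK-MEL-30 cells, determined with a cell viability assay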
# Description: SANGER: Inhibition of human SK-MEL-30 cell growth in a cell viability assay.
# [44] = system: SNU-449; experiment: cells; type: functional, cell-based; settings: Homo sapiens
# Description: SANGER: Inhibition of human SNU-449 cell growth in a cell viability assay.
# [45] = system: KYSE-520 cell line; experiment: cells; type: functional, cell-based; settings: Homo sapiens;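 also: growth inhibition of human KYSE-520 cells, read out with a viability assay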
# Description: SANGER: Inhibition of human KYSE-520 cell growth in a cell viability assay.
# [46] = system: C-33-A; experiment: cells; type: functional, cell-based; settings: Homo sapiens;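 also: cell viability assay measuring growth inhibition of C-33-A cells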
# Description: SANGER: Inhibition of human C-33-A cell growth in a cell viability assay.
# [47] = system: PC-14; experiment: cells; type: functional, cell-based; settings: Homo sapiens;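 also: cell viability assay measuring inhibition of PC-14 cell growth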
# Description: SANGER: Inhibition of human PC-14 cell growth in a cell viability assay.
# [48] = system: HCC38; experiment: cells; type: functional, cell-based; settings: Homo sapiens;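 also: cell viability assay on the human HCC38 cell line, with IC50 marking the concentration that inhibits cell growth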
# Description: SANGER: Inhibition of human HCC38 cell growth in a cell viability assay.
# [49] = system: KYSE-450; experiment: cells; type: functional, cell-based; settings: Homo sapiens;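 also: cell growth inhibition measured by a viability assay in human KYSE-450 cells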
# Description: SANGER: Inhibition of human KYSE-450 cell growth in a cell viability assay.
# [50] = system: HT1197; experiment: cells; type: functional, cell-based, HT-1197; settings: Homo sapiens
# Description: SANGER: Inhibition of human HT-1197 cell growth in a cell viability assay.
# [51] = system: COR-L23; experiment: cells; type: functional, cell-based; settings: Homo sapiens;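 also: cell viability assay measuring how strongly compounds suppress growth of COR-L23 cells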
# Description: SANGER: Inhibition of human COR-L23 cell growth in a cell viability assay.
# [52] = system: SK-MEL-28; experiment: cells; type: functional, cell-based; settings: Homo sapiens;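 also: growth inhibition of human SK-MEL-28 cells, read out with a cell viability assay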
# Description: SANGER: Inhibition of human SK-MEL-28 cell growth in a cell viability assay.
# [53] = system: HuO9; experiment: cells; type: functional, cell-based; settings: Homo sapiens;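 also: growth inhibition of HuO9 cells, read out with a cell viability assay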
# Description: SANGER: Inhibition of human HuO9 cell growth in a cell viability assay.
# [54] = system: SCC-9; experiment: cells; type: functional, cell-based; settings: Homo sapiens;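 also: Read-out is a cell viability assay, with values giving inhibition of cell growth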
# Description: SANGER: Inhibition of human SCC-9 cell growth in a cell viability assay.
# [55] = system: CHL-1; experiment: cells; type: functional, cell-based; settings: Homo sapiens;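 also: cell growth inhibition, read out with a cell viability assay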
# Description: SANGER: Inhibition of human CHL-1 cell growth in a cell viability assay.
# [56] = system: PFSK-1; experiment: cells; type: functional, cell-based; settings: Homo sapiens;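 also: cell viability assay measuring how strongly compounds suppress growth of human PFSK-1 cells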
# Description: SANGER: Inhibition of human PFSK-1 cell growth in a cell viability assay.
# [57] = system: DK-MG; experiment: cells; type: functional, cell-based; settings: Homo sapiens;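 also: growth inhibition of DK-MG cells, read out with a cell viability assay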
# Description: SANGER: Inhibition of human DK-MG cell growth in a cell viability assay.
# [58] = system: P12-Ichikawa; experiment: cells; type: functional, cell-based; settings: Homo sapiens
smiles,measurement,setting,value
CO[C@@H]1[C@H](N(C)C(=O)c2ccccc2)C[C@H]2O[C@]1(C)n1c3ccccc3c3c4c(c5c6ccccc6n2c5c31)C(=O)NC4 [MIDOSTAURIN],IC50,[1],> 0.512 µM
same,IC50,[2],> 0.512 µM
same,IC50,[3],0.334 µM
same,IC50,[4],0.24 µM
same,IC50,[5],> 0.512 µM
same,IC50,[6],> 0.512 µM
CC(C)C[C@H](NC(=O)[C@H](Cc1ccccc1)NC(=O)c1cnccn1)B(O)O [BORTEZOMIB],IC50,[7],0.0181 µM
same,IC50,[8],0.00266 µM
same,IC50,[2],0.0184 µM
same,IC50,[9],> 0.02 µM
same,IC50,[10],0.00125 µM
same,IC50,[11],0.00244 µM
same,IC50,[12],0.00765 µM
same,IC50,[13],0.00137 µM
same,IC50,[14],> 0.02 µM
same,IC50,[15],> 0.02 µM
same,IC50,[16],0.00208 µM
same,IC50,[17],> 0.02 µM
same,IC50,[18],0.0101 µM
same,IC50,[19],0.0119 µM
same,IC50,[20],> 0.02 µM
same,IC50,[21],> 0.02 µM
same,IC50,[22],> 0.02 µM
same,IC50,[23],0.00204 µM
same,IC50,[24],0.00131 µM
O=C(NCCCNc1nc(Nc2cccc(NC(=O)N3CCCC3)c2)ncc1I)c1cccs1 [BX-795],IC50,[25],1.31 µM
same,IC50,[26],> 5 µM
same,IC50,[27],> 5 µM
same,IC50,[1],3.61 µM
same,IC50,[28],> 5 µM
same,IC50,[29],> 5 µM
same,IC50,[30],2.76 µM
same,IC50,[31],> 5 µM
same,IC50,[4],> 5 µM
same,IC50,[32],> 5 µM
same,IC50,[33],> 5 µM
same,IC50,[34],3.72 µM
same,IC50,[35],1.57 µM
same,IC50,[36],> 5 µM
same,IC50,[37],4.31 µM
same,IC50,[38],3.91 µM
same,IC50,[5],> 5 µM
same,IC50,[39],> 5 µM
same,IC50,[40],> 5 µM
same,IC50,[41],> 5 µM
same,IC50,[42],> 5 µM
same,IC50,[6],4.09 µM
same,IC50,[43],> 5 µM
same,IC50,[44],5 µM
same,IC50,[45],> 5 µM
same,IC50,[46],> 5 µM
same,IC50,[47],> 5 µM
same,IC50,[48],> 5 µM
same,IC50,[49],> 5 µM
same,IC50,[50],> 5 µM
same,IC50,[51],4.02 µM
same,IC50,[52],> 5 µM
same,IC50,[53],2.56 µM
same,IC50,[54],> 5 µM
same,IC50,[55],1.92 µM
same,IC50,[23],> 5 µM
same,IC50,[56],> 5 µM
same,IC50,[57],1.57 µM
same,IC50,[58],1.18 µM
C[C@@H](Oc1cc(-c2cnn(C3CCNCC3)c2)cnc1N)c1c(Cl)ccc(F)c1Cl [CRIZOTINIB],IC50,[7],> 2 µM
same,IC50,[8],> 2 µM
same,IC50,[2],> 2 µM
same,IC50,[9],> 2 µM
same,IC50,[10],> 2 µM
same,IC50,[11],> 2 µM
same,IC50,[12],> 2 µM
same,IC50,[13],> 2 µM
same,IC50,[14],> 2 µM
same,IC50,[15],> 2 µM
same,IC50,[16],> 2 µM
same,IC50,[17],> 2 µM
same,IC50,[18],> 2 µM
same,IC50,[19],> 2 µM
same,IC50,[20],> 2 µM
same,IC50,[21],> 2 µM
same,IC50,[22],> 2 µM
same,IC50,[23],> 2 µM
same,IC50,[24],> 2 µM
C=CC(=O)N1CCCC(Nc2nc(Nc3ccc(N(C)C(=O)CC)cc3)nc3[nH]cnc23)C1 (configuration not stated),IC50,[7],> 10.2 µM
same,IC50,[8],> 10.2 µM
same,IC50,[2],> 10.2 µM
same,IC50,[9],> 10.2 µM
same,IC50,[10],> 10.2 µM
same,IC50,[11],> 10.2 µM
same,IC50,[12],> 10.2 µM
same,IC50,[13],> 10.2 µM
same,IC50,[14],> 10.2 µM
same,IC50,[15],> 10.2 µM
same,IC50,[16],4.59 µM
same,IC50,[17],> 10.2 µM
same,IC50,[18],> 10.2 µM
same,IC50,[19],> 10.2 µM
same,IC50,[20],> 10.2 µM
same,IC50,[21],> 10.2 µM
same,IC50,[22],> 10.2 µM
same,IC50,[23],> 10.2 µM
same,IC50,[24],> 10.2 µM
